Measured values as given in PMC6984732, “Thymidine phosphorylase and prostrate cancer cell proliferation inhibitory activities of synthetic 4-hydroxybenzohydrazides: In vitro, kinetic, and in silico studies” (PLoS ONE, 2020).
Where two headings read alike, the source gives them in different places.

Assays:
[1] = biological target: T1, thymidine phosphorylase (TP) (Escherichia coli, UniProt P07650); test: Thymidine phosphorylase inhibition assay (spectrophotometric, 290 nm); assay type: biochemical, E. coli; conditions: for inhibition: read-out: Percent Inhibition of thymidine phosphorylase, 10 μL of test compound (0.5 mM in dimethylsulfoxide) per well; for inhibition / inhibition at 500 µM (stock): <50% regarded inactive; for inhibition at 500 µM (stock): 10 μL of test compound (0.5 mM in dimethylsulfoxide) per well, read-out: Percent Inhibition of thymidine phosphorylase; for IC50: recombinant TP expressed in E. coli, substrate thymidine, pH 7.0, 30°C, N.A. = not active, read-out: IC50 (μM ± SEM), thymidine phosphorylase inhibition
T1 construct: purchased Sigma Aldrich, USA; host or cells: E. coli
Description: Since human TP is not commercially available, we used commercially available recombinant TP (expressed in E. coli) enzyme. Primary sequence of TP is mostly conserved throughout the evolution and mammalian TP share 39% sequence similarity with TP of E. coli. The mammalian enzyme also shares 65–70% similarity with the active site residues of E. coli TP enzyme.
Assay for TP inhibition was performed spectrophotometrically, following the method of Bera et al. with some modifications. Enzyme TP catalyzed the reversible phosphorolysis of thymidine to thymine and 2-deoxyribose-1-phosphate. Reaction mixture contained 150 μL of potassium phosphate buffer (pH 7.0, 50 mM), 20 μL of enzyme (0.058 U/well), and 10 μL of test compound (0.5 mM in dimethylsulfoxide). The reaction mixture was incubated for 10 min at 30°C. 20 μL of substrate (1.5 mM) was then added and change in absorbance was recorded after every minute for a total time period of 10 minutes at 290 nm in ELISA plate reader (Spectra Max-340, Molecular Devices, CA, USA).
We have used the 96-well UV-plates, purchased from Corning (Catalogue No. COSTAR 3635, Lot No. 00912050). […] We then added the substrate (thymidine), and recorded the final readings.

[2] = biological target: T1, thymidine phosphorylase (TP); test: Kinetic studies on thymidine phosphorylase (Lineweaver-Burk, secondary re-plot, Dixon plot); assay type: biochemical, E. coli; conditions: thymidine as variable substrate; for Inhibition Type: from Lineweaver-Burk plot
Description: Kinetic studies were carried out to identify the mechanism of inhibition by these compounds. Inhibitor could bind with the enzyme in multiple ways, such as in competitive, non-competitive, mixed or uncompetitive way. In kinetic assay, the enzyme (0.058 U/200 μL) was incubated with different concentrations of inhibitor for 10 min at 30°C. The reaction was then initiated by adding different concentrations (0.1875–1.5 mM) of substrate (thymidine), and the resulting degradation of thymidine was measured continuously at 290 nm for 10 min on ELISA plate reader. Every experiment was run in triplicate.
Lineweaver-Burk plot was plotted to determine the type of inhibition. This was accomplished by plotting the reciprocal of the rate of reaction against the reciprocal of the substrate concentration. Ki values were determined by secondary re-plot of Lineweaver-Burk plot, and reconfirmed by Dixon plot.

[3] = tested on: prostate cancer (PC3) cells; test: MTT anti-proliferative assay, PC3 cells; assay type: cell-based; conditions: Homo sapiens, PC-3, 48 h incubation, prostate cancer cell line, read-out: IC50 ± Standard Deviation, PC3 Cell Line
Description: (§1) Anti-proliferative activity of active compounds was evaluated by using the standard MTT (3-[4,5-dimethylthiazole-2-yl]-2,5-diphenyl-tetrazolium bromide) colorimetric assay in 96-well plate.
(§2) It is a colorimetric assay that measures the reduction of MTT by mitochondrial enzyme i.e. succinate dehydrogenase. The MTT enters into the mitochondria of cell, where it is reduced to an insoluble formazan salt. As reduction of MTT can only occur in metabolically active cells, the level of activity is actually a measure of the viability of the cells.
(§3) Mouse fibroblast normal cell line 3T3, and prostate cancer line (PC3) were cultured separately in DMEM, supplemented with 5% of FBS, 100 IU/mL of penicillin and 100 μg/mL of streptomycin, and kept at 37°C in 5% CO2 incubator. For the preparation of cell culture, 100 μL/well of cell solution (5 x 10^4 cells/mL) was added into 96-well plate. The plate was incubated for overnight, and fresh medium was added after the removal of old medium. The test compounds were also added in different concentrations into the plate, and again incubated for 48 h. After the completion of this incubation period, 200 μL MTT (0.5 mg/mL) was added, and plate was again incubated for 4 h, after this final incubation, 100 μL of DMSO was added to each well. The level of MTT reduction to formazan was evaluated by change in absorbance at 540 nm for 3T3, and 570 nm for PC3 using a micro-plate reader (Spectra Max plus, Molecular Devices, CA, USA).

[4] = tested on: mouse fibroblast (3T3) cells; test: MTT anti-proliferative (cytotoxicity) assay, 3T3 cells; assay type: cell-based; conditions: mouse fibroblast normal cell line, read-out: IC50 ± Standard Deviation, 3T3 Cell Line
Description: as §1, §2, §3

T1 sequence (P07650 whole entry): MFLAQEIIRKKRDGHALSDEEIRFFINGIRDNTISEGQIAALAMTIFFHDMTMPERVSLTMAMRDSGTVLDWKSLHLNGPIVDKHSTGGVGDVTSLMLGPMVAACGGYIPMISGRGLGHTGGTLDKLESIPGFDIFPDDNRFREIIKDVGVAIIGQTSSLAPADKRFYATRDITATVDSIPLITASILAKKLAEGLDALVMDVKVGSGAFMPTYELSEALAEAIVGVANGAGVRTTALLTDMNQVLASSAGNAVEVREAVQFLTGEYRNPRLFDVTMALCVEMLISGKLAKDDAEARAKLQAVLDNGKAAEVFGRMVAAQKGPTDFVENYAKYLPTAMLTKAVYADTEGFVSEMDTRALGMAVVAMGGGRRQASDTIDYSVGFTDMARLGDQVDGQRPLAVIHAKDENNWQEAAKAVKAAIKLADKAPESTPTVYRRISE

Structure (SMILES) | inhibition [1] [%] | IC50 [3] [µM] | IC50 ([4]; NIH3T3, 48 h incubation) [µM] | other results
O=c1[nH]c(=O)c2cc[nH]c2[nH]1 [7-Deazaxanthine, reference compound] | 99 | – | – | Inhibition Type [2]: Non-competitive
O=C(N/N=C/c1ccccc1O)c1ccc(O)cc1 [Compound 1, 4-Hydroxyl-N'-[(E)-(2^′-hydroxylphenyl)methylidene]benzohydrazide] | 99.6 | 7.5 ± 0.4 | 13.1 ± 0.3 | –
O=C(N/N=C/c1cccc(O)c1O)c1ccc(O)cc1 [Compound 2, N'-[(E)-(2^′,3^′-Dihydroxylphenyl)methylidene]-4-hydroxylbenzohydrazide] | 99.9 | 7.6 ± 0.4 | 23 ± 1 | –
O=C(N/N=C/c1ccc(O)c(O)c1)c1ccc(O)cc1 [Compound 3, N'-[(E)-(3^′,4^′-Dihydroxylphenyl)methylidene]-4-hydroxylbenzohydrazide] | 99.3 | > 30 | 23.5 ± 1.1 | Inhibition Type [2]: Uncompetitive
O=C(N/N=C/c1c(O)cc(O)cc1O)c1ccc(O)cc1 [Compound 4, 4-Hydroxyl-N'-[(E)-(2^′,4^′,6^′-trihydroxylphenyl)methylidene]benzohydrazide] | – | – | – | inhibition at 500 µM (stock) [1]: 8%
O=C(N/N=C/c1ccc(O)c(O)c1O)c1ccc(O)cc1 [Compound 5, 4-Hydroxyl-N'-[(E)-(2^′,3^′,4^′-trihydroxylphenyl)methylidene]benzohydrazide] | – | – | – | inhibition at 500 µM (stock) [1]: 26%
O=C(N/N=C/c1cccc(O)c1)c1ccc(O)cc1 [Compound 6, 4-Hydroxyl-N'-[(E)-(3^′-hydroxylphenyl)methylidene]benzohydrazide] | 99 | > 30 | > 30 | –
O=C(N/N=C/c1cc(O)c(O)cc1O)c1ccc(O)cc1 [Compound 7, 4-Hydroxyl-N'-[(E)-(2^′,4^′,5^′-trihydroxylphenyl)methylidene]benzohydrazide] | 99 | > 30 | 3.8 ± 0.4 | –
O=C(N/N=C/c1ccc(O)cc1)c1ccc(O)cc1 [Compound 8, 4-Hydroxyl-N'-[(E)-(4^′-hydroxylphenyl)methylidene]benzohydrazide] | 99 | > 30 | > 30 | –
O=C(NN=Cc1ccc(Cl)cc1)c1ccc(O)cc1 [Compound 9, N'-[(E)-(4^′-Chlorophenyl)methylidene]-4-hydroxylbenzohydrazide] | 99 | > 30 | > 30 | IC50 [1]: 159 ± 0.4 µM; Inhibition Type [2]: Uncompetitive; Ki ([2]; secondary re-plot of Lineweaver-Burk plot, reconfirmed by Dixon plot, read-out: Ki (μM ± SEM)): 138 ± 0.009 µM
COc1ccc(/C=N/NC(=O)c2ccc(O)cc2)cc1 [Compound 10, 4-Hydroxyl-N'-{(E)-[4^′-(methoxy)phenyl]methylidene}benzohydrazide] | 99.8 | > 30 | > 30 | –
O=C(N/N=C/c1cccc(Cl)c1)c1ccc(O)cc1 [Compound 11, N'-[(E)-(3^′-Chlorophenyl)methylidene]-4-hydroxylbenzohydrazide] | 99 | > 30 | > 30 | –
COc1ccccc1/C=N/NC(=O)c1ccc(O)cc1 [Compound 12, 4-Hydroxyl-N'-{(E)-[2^′-(methoxy)phenyl]methylidene}benzohydrazide] | 99 | > 30 | > 30 | –
COc1ccc(/C=N/NC(=O)c2ccc(O)cc2)cc1OC [Compound 13, N'-{(E)-[3^′,4^′-Bis(methoxy)phenyl]methylidene}-4-hydroxylbenzohydrazide] | 99 | > 30 | > 30 | –
O=C(N/N=C/c1ccc(Br)cc1)c1ccc(O)cc1 [Compound 14, N'-[(E)-(4^′-Bromophenyl)methylidene]-4-hydroxylbenzohydrazide] | 96.6 | > 30 | > 30 | Inhibition Type [2]: Uncompetitive
O=C(N/N=C/c1ccc(Cl)cc1Cl)c1ccc(O)cc1 [Compound 15, N'-[(E)-(2^′,4^′-Dichlorophenyl)methylidene]-4-hydroxylbenzohydrazide] | – | – | – | inhibition at 500 µM (stock) [1]: 20%
Cc1ccccc1/C=N/NC(=O)c1ccc(O)cc1 [Compound 16, 4-Hydroxyl-N'-[(E)-(2^′-methylphenyl)methylidene]benzohydrazide] | 99 | > 30 | > 30 | –
COc1cccc(/C=N/NC(=O)c2ccc(O)cc2)c1O [Compound 19, 4-Hydroxyl-N'-[(E)-(2^′-hydroxyl-3^′-methoxyphenyl)methylidene]benzohydrazide] | 86.9 | 9.6 ± 0.3 | 23.6 ± 0.2 | IC50 [1]: 181.5 ± 1.6 µM
O=C(N/N=C/c1cc(Br)ccc1O)c1ccc(O)cc1 [Compound 20, N'-[(E)-(5^′-Bromo-2^′-hydroxylphenyl)methylidene]-4-hydroxylbenzohydrazide] | – | – | – | inhibition at 500 µM (stock) [1]: 38.6%
O=C(N/N=C/c1cc(Cl)ccc1O)c1ccc(O)cc1 [Compound 21, N'-[(E)-(5^′-Chloro-2^′-hydroxylphenyl)methylidene]-4-hydroxylbenzohydrazide] | 12.4 | – | – | –
COc1ccc(O)c(/C=N/NC(=O)c2ccc(O)cc2)c1 [Compound 23, 4-Hydroxyl-N'-{(E)-[2^′-hydroxyl-5^′-(methoxy)phenyl]methylidene}benzo-hydrazide] | 99.9 | 10.5 ± 0.5 | 15.3 ± 0.9 | –
CCOc1cccc(/C=N/NC(=O)c2ccc(O)cc2)c1O [Compound 24, N'-{(E)-[3^′-Ethoxy-2^′-hydroxylphenyl]methylidene}-4-hydroxylbenzohydrazide] | 82.4 | 6.5 ± 0.2 | 9.4 ± 0.3 | –
C/C(=N\NC(=O)c1ccc(O)cc1)c1ccccc1O [Compound 25, 4-Hydroxyl-N'-[(E)-1-(2^′-hydroxylphenyl)ethylidene]benzohydrazide] | 25 | – | – | –
C/C(=N\NC(=O)c1ccc(O)cc1)c1ccc(O)cc1O [Compound 26, N'-[(E)-1-(2^′,4^′-Dihydroxylphenyl)ethylidene]-4-hydroxylbenzohydrazide] | 30 | – | – | –
C/C(=N\NC(=O)c1ccc(O)cc1)c1cc(O)ccc1O [Compound 28, N'-[(E)-1-(2^′,5^′-Dihydroxylphenyl)ethylidene]-4-hydroxylbenzohydrazide] | 99.3 | > 30 | 20.2 ± 0.9 | –
C[C@@H]1C[C@@H]([C@H](O)CC2CC(=O)NC(=O)C2)C(=O)[C@@H](C)C1 [Cyclohexamide, cyclohexamide, reference compound] | – | – | – | IC50 ([4]; 48 h incubation): 0.26 ± 0.1 µM
COc1cccc2c1C(=O)c1c(O)c3c(c(O)c1C2=O)C[C@@](O)(C(=O)CO)C[C@@H]3O[C@H]1C[C@H](N)[C@H](O)[C@H](C)O1 [Doxorubicin, doxorubicin, reference compound] | – | 0.91 ± 0.1 | – | –
N=C1CCCN1Cc1nc(O)nc(O)c1Cl [tipiracil, reference compound] | 99 | – | – | –
